Laboratory results: patent US20090029992A1, “SUBSTITUTED PYRAZOLE COMPOUNDS” (priority 2007, published 2009)

Legend:
Aurora B kinase = target: T1, Aurora B kinase (Homo sapiens, UniProt Q96GD4); experiment: Aurora B (Aurora 1) inhibition assay; type: biochemical; conditions: ATP 50 μM, 16 h
T1 construct: purchased BPS Biosciences, San Diego, Calif
Description: Compounds were tested for their potency against recombinant Aurora A (Upstate, Lake Placid, N.Y.) using the PanVera Z′-Lyte kinase assay kit—Ser/Thr 1 peptide (Invitrogen, Carlsbad, Calif.). Assays were carried out in kinase assay buffer (50 mM HEPES, pH 7.5, 10 mM MgCl2, 5 mM EGTA, 0.05% Brij-35, 2 mM DTT). Test compounds were initially dissolved in DMSO at 100× the highest tested concentration, then serially diluted to 4× test concentrations in kinase assay buffer. Next, Aurora A (final concentration 200-500 ng/mL), Z′-Lyte Ser/Thr 1 peptide (final concentration 2 μM) and ATP (final concentration 10 μM) were added according to the manufacturer's instructions. Assays were carried out in half-area 96-well white polystyrene assay plates (Corning, Corning, N.Y.) in a final volume of 20 μl. The reaction was allowed to proceed for 1 h at room temperature in the dark, at which point the development reagent and stop reagent were added according to the manufacturer's instructions. Coumarin (Ex. 400 nm, Em. 465 nm) and fluorescein (Ex. 400 nm, Em. 565 nm) fluorescence values were measured on a SpectraFluor Plus plate reader (Tecan, Durham, N.C.). The emission ratio (coumarin/fluorescein) was determined and used to calculate the percent phosphorylation for each well. Wells containing substrate but no kinase and wells containing a phosphopeptide control were used to set 0% and 100% phosphorylation values, respectively. Typically 20-40% of the substrate was phosphorylated in wells without inhibitor. Dose-response curves of relative Aurora A activity vs. inhibitor concentration were plotted with Grafit (Erithacus Software, Horley, Surrey, UK).
Assays for Aurora B kinase inhibition were carried out similarly to those for Aurora A kinase (see above) with the following modifications. Aurora B kinase (BPS Biosciences, San Diego, Calif.) was used as the enzyme, at a concentration was 2.5 μg/mL. The ATP concentration was 50 μM, and the kinase reaction was allowed to proceed for 16 h. Sodium orthovanadate (20 μM) was added to the buffer to inhibit contaminating phosphatases.

[1] = target: T2, N-terminal His-tagged human Src (Homo sapiens, UniProt P12931); experiment: Src kinase inhibition assay (33P-ATP filter assay); type: biochemical
T2 construct: His (N); purchased Upstate USA Inc, 706 Forest Street, Charlottesville, Va

HCT116 cells = experiment: Whole cell cytotoxicity assay, Sulforhodamine B; type: cell-based; conditions: Homo sapiens, HCT-116, HCT116, 96 hours incubation, SRB; for GI50: read-out: GI50 HCT116 cell growth; for IC50: read-out: IC50 values in this assay (HCT116 cell growth)
Summary of the method: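 HCT116 cells (500/well) in DMEM/10% FBS/2 mM glutamine were preincubated 24 h, then exposed to compound for 96 h at 37 °C, 5% CO2, in duplicate. Cells were fixed with TCA and stained with sulforhodamine B (A570). GI50, TGI and LC50 were derived relative to a time-zero plate and an untreated control.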

[2] = group with IC50 greater than 100 nM

T2 sequence (P12931 whole entry): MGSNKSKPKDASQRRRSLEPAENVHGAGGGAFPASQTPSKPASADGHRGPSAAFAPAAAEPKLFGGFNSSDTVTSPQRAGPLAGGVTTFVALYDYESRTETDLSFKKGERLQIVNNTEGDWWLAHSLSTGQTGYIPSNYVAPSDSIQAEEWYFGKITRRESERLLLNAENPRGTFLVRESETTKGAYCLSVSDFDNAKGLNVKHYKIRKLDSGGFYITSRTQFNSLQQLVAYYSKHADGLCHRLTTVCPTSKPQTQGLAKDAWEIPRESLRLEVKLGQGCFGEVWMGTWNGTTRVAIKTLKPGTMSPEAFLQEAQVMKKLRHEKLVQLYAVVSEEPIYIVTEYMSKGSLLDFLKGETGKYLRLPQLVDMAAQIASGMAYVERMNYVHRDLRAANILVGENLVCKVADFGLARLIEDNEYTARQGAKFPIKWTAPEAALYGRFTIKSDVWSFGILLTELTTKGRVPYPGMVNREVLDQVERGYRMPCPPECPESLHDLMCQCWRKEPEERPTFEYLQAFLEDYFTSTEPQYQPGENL
T1 sequence (Q96GD4 whole entry): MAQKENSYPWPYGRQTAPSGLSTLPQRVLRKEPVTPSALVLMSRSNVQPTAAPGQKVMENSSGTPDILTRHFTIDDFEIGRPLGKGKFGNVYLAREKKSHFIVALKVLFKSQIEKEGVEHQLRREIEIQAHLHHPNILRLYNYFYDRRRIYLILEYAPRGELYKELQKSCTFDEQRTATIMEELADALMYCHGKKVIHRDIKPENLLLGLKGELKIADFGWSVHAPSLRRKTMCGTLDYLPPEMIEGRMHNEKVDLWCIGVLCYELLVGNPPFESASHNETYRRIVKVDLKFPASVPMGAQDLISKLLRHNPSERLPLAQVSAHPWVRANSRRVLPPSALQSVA

SMILES	IC50 (Aurora B kinase)	IC50 ([1]; 40 minutes at room temperature)	GI50 (HCT116 cells)	IC50 (HCT116 cells)	IC50 [1, 2]
Cc1cc(Nc2cc(N3CCN(C)CC3)nc(-c3ccccc3)n2)n[nH]1 [Compound 8, N-(5-methyl-1H-pyrazol-3-yl)-6-(4-methylpiperazin-1-yl)-2-phenyl pyrimidin-4-amine]	≤ 1 µM	≤ 0.1 µM	≤ 1 µM		
Cc1cc(Nc2cc(NC3CCOCC3)nc(-c3cc4ccccc4o3)n2)n[nH]1 [Compound 15, 2-(benzofuran-2-yl)-N^4-(tetrahydro-2H-pyran-4-yl)-N^6-(5-methyl-1H-pyrazol-3-yl)-pyrimidine-4,6-diamine]	≤ 1 µM	≤ 0.1 µM	≤ 1 µM		
Cc1cc(Nc2cc(N3CCN(C)CC3)nc(-c3cccc(-c4ccccc4)c3)n2)n[nH]1 [Compound 16, 2-(biphenyl-3-yl)-N-(5-methyl-1H-pyrazol-3-yl)-6-(4-methylpiperazin-1-yl)pyrimidin-4-amine]	≤ 1 µM	≤ 0.1 µM	≤ 1 µM		
Cc1cc(Nc2cc(NC3CCOCC3)nc(-c3cccc(F)c3)n2)n[nH]1 [Compound 20, 2-(3-fluorophenyl)-N^4-(5-methyl-1H-pyrazol-3-yl)-N^6-(tetrahydro-2H-pyran-4-yl)pyrimidine-4,6-diamine]	≤ 1 µM	≤ 0.1 µM		1 to 10 µM	
Cc1cc(Nc2cc(N3CCN(C)CC3)nc(-c3cccc(F)c3)n2)n[nH]1 [Compound 33, 2-(3-fluorophenyl)-N-(5-methyl-1H-pyrazol-3-yl)-6-(4-methylpiperazin-1-yl)pyrimidin-4-amine]	≤ 1 µM	≤ 0.1 µM	≤ 1 µM		
Cc1cc(Nc2cc(N3CCN(C)CC3)nc(-c3cccc(Cl)c3)n2)n[nH]1 [Compound 36, 2-(3-chlorophenyl)-N-(5-methyl-1H-pyrazol-3-yl)-6-(4-methylpiperazin-1-yl)pyrimidin-4-amine]	≤ 1 µM	≤ 0.1 µM	≤ 1 µM		
COc1cccc(-c2nc(Nc3cc(C)[nH]n3)cc(N3CCN(C)CC3)n2)c1 [Compound 42, 2-(3-methoxyphenyl)-N-(5-methyl-1H-pyrazol-3-yl)-6-(4-methylpiperazin-1-yl)pyrimidin-4-amine]	≤ 1 µM	≤ 0.1 µM	≤ 1 µM		
Cc1cc(Nc2cc(NC3CCOCC3)nc(-c3cccc(N(C)C)c3)n2)n[nH]1 [Compound 74, 2-(3-(dimethylamino)phenyl)-N^4-(5-methyl-1H-pyrazol-3-yl)-N^6-(tetrahydro-2H-pyran-4-yl)pyrimidine-4,6-diamine]	≤ 1 µM	≤ 0.1 µM	≤ 1 µM		
Cc1cc(Nc2cc(NC3CCOCC3)nc(-c3ccc4c(c3)OCCO4)n2)n[nH]1 [Example 130, 2-(2,3-dihydrobenzo[b][1,4]dioxin-6-yl)-N^4-(5-methyl-1H-pyrazol-3-yl)-N^6-(tetrahydro-2H-pyran-4-yl)pyrimidine-4,6-diamine]	≤ 1 µM	≤ 0.1 µM		1 to 10 µM	
Cc1cc(Nc2cc(N3CCN(C)CC3)nc(-c3ccc4c(c3)OCCO4)n2)n[nH]1 [Example 137, 2-(2,3-dihydrobenzo[b][1,4]dioxin-6-yl)-N-(5-methyl-1H-pyrazol-3-yl)-6-(4-methylpiperazin-1-yl)pyrimidin-4-amine]	≤ 1 µM	≤ 0.1 µM	≤ 1 µM		
Cc1cc(Nc2cc(N3CCN(C)CC3)nc(-c3ccc4c(c3)OCO4)n2)n[nH]1 [Example 139, 2-(benzo[d][1,3]dioxol-5-yl)-N-(5-methyl-1H-pyrazol-3-yl)-6-(4-methylpiperazin-1-yl)pyrimidin-4-amine]	≤ 1 µM	≤ 0.1 µM	≤ 1 µM		
Cc1cc(Nc2cc(N3CCN(C)CC3)nc(-c3cccc([N+](=O)[O-])c3)n2)n[nH]1 [Example 162, N-(5-methyl-1H-pyrazol-3-yl)-6-(4-methylpiperazin-1-yl)-2-(3-nitrophenyl)pyrimidin-4-amine]	≤ 1 µM	≤ 0.1 µM	≤ 1 µM		
Cc1cc(Nc2cc(N3CCN(C)CC3)nc(-c3cccc(C#N)c3)n2)n[nH]1 [Example 163, 3-(4-(5-methyl-1H-pyrazol-3-ylamino)-6-(4-methylpiperazin-1-yl)pyrimidin-2-yl)benzonitrile]	≤ 1 µM	≤ 0.1 µM	≤ 1 µM		
CC(=O)c1cccc(-c2nc(Nc3cc(C)[nH]n3)cc(N3CCN(C)CC3)n2)c1 [Example 165, 1-(3-(4-(5-methyl-1H-pyrazol-3-ylamino)-6-(4-methylpiperazin-1-yl)pyrimidin-2-yl)phenyl)ethanone]	≤ 1 µM		≤ 1 µM		
COC(=O)c1cccc(-c2nc(Nc3cc(C)[nH]n3)cc(N3CCN(C)CC3)n2)c1 [Example 166, methyl 3-(4-(5-methyl-1H-pyrazol-3-ylamino)-6-(4-methylpiperazin-1-yl)pyrimidin-2-yl)benzoate]	≤ 1 µM	≤ 0.1 µM	≤ 1 µM		
Cc1cc(Nc2cc(N3CCN(C)CC3)nc(-c3cc(F)cc(F)c3)n2)n[nH]1 [Example 170, 2-(3,5-difluorophenyl)-N-(5-methyl-1H-pyrazol-3-yl)-6-(4-methylpiperazin-1-yl)pyrimidin-4-amine]	≤ 1 µM	≤ 0.1 µM	≤ 1 µM		
CCOc1cccc(-c2nc(Nc3cc(C)[nH]n3)cc(N3CCN(C)CC3)n2)c1 [Example 190, 2-(3-ethoxyphenyl)-N-(5-methyl-1H-pyrazol-3-yl)-6-(4-methylpiperazin-1-yl)pyrimidin-4-amine]	≤ 1 µM	≤ 0.1 µM	≤ 1 µM		
COc1cc(OC)cc(-c2nc(Nc3cc(C)[nH]n3)cc(N3CCN(C)CC3)n2)c1 [Example 191, 2-(3,5-dimethoxyphenyl)-N-(5-methyl-1H-pyrazol-3-yl)-6-(4-methylpiperazin-1-yl)pyrimidin-4-amine]	≤ 1 µM	≤ 0.1 µM	≤ 1 µM		
COc1ccc(F)c(-c2nc(Nc3cc(C)[nH]n3)cc(N3CCN(C)CC3)n2)c1 [Example 197, 2-(2-fluoro-5-methoxyphenyl)-N-(5-methyl-1H-pyrazol-3-yl)-6-(4-methylpiperazin-1-yl)pyrimidin-4-amine]		≤ 0.1 µM	≤ 1 µM		
Cc1cc(Nc2cc(N3CCN(C)CC3)nc(-c3cccc(F)c3F)n2)n[nH]1 [Example 200]		≤ 0.1 µM	≤ 1 µM		
Cc1ccc(C)c(-c2nc(Nc3cc(C)[nH]n3)cc(N3CCN(C)CC3)n2)c1 [Example 201, 2-(2,5-dimethylphenyl)-N-(5-methyl-1H-pyrazol-3-yl)-6-(4-methylpiperazin-1-yl)pyrimidin-4-amine]				1 to 10 µM	≤ 1 µM
Cc1cc(Nc2cc(N3CCN(C)CC3)nc(-c3cccc4ccoc34)n2)n[nH]1 [Example 203, 2-(benzofuran-7-yl)-N-(5-methyl-1H-pyrazol-3-yl)-6-(4-methylpiperazin-1-yl)pyrimidin-4-amine]		≤ 0.1 µM		1 to 10 µM	
Cc1cc(Nc2cc(NC3CCOCC3)nc(-c3cccc4ccoc34)n2)n[nH]1 [Example 204, 2-(benzofuran-7-yl)-N^4-(5-methyl-1H-pyrazol-3-yl)-N^6-(tetrahydro-2H-pyran-4-yl)pyrimidine-4,6-diamine]				1 to 10 µM	≤ 1 µM
Cc1cc(Nc2cc(N(C)CCN(C)C)nc(-c3cccc4ccoc34)n2)n[nH]1 [Example 205, 2-(benzofuran-7-yl)-N^4-(2-(dimethylamino)ethyl)-N^4-methyl-N^6-(5-methyl-1H-pyrazol-3-yl)pyrimidine-4,6-diamine]				1 to 10 µM	≤ 1 µM
